Data from Sander's compilation of Henry's law constants (doi:10.1021/je700418a).

Experiment: Henry solubility constant Hcp at 298.15 K (mol/(m3 Pa))
Conditions: reference: Helburn et al. (2008)

| SMILES | Henry solubility constant Hcp |
| --- | --- |
| Cc1ccccc1 [methylbenzene] | 0.0014 |
| CC(C)=CCCC(C)=CC#N [3,7-dimethyl-2,6-octadienenitrile] | 0.029 |
| CC(C)C12CCC(C)(CC1)O2 [1-methyl-4-(1-methylethyl)-7-oxabicyclo[2.2.1]heptane] | 0.039 |
| CCOCC [diethyl ether] | 0.095 |
| CC(C)O [2-propanol] | 0.68 |
| CCCCOC(C)=O [butyl ethanoate] | 0.021 |
| ClC=C(Cl)Cl [trichloroethene] | 0.00094 |

Now from value to compound:

| Henry solubility constant Hcp | SMILES |
| --- | --- |
| 0.00026 | C=C(C)[C@H]1CC=C(C)CC1 [(R)-1-methyl-4-(1-methylethenyl)-cyclohexene] |
| 0.0032 | ClCCl [dichloromethane] |
| 8e-05 | C1CCCCC1 [cyclohexane] |
| 0.0043 | CCCCCCCCCC=O [decanal] |
